# According to patent publication US6169181A, “Compounds useful to treat retroviral infections” (Pharmacia & Upjohn Company, priority 1998, dated 2001):
# Values joined by “and” are separate entries in the source; they are usually repeats but may differ in a detail not shown here. Equal entries are not always repeated. Where two headings read alike, the source gives them in different places.
# Experiments:
# [1] = target: T1, single chain tethered (tandem) HIV protease (HIV-1 M:B_HXB2R, UniProt P04585); assay: Tandem HIV protease assay; type: biochemical; settings: read-out: FITC KI; Table II; enzyme HIV1TANDEM
# T1 construct: purified enzyme, FITC/biotin substrate assay
# Procedure: In the enzyme inhibition assay described above, the sensitivity of Ki value determination is in part limited by the ability to continue to lower the enzyme concentration for compounds with high binding affinity. To prevent de-dimerization at low enzyme concentration, a tandemly linked enzyme is prepared in which the two monomers are covalently linked by an appropriate stretch of amino acid residues. Using the latter enzyme, the sensitivity of the inhibition assay is improved since much lower enzyme concentration can be utilized, as compared to the condition using the wild-type enzyme.
# The starting inhibitor concentrations are determined based on preliminary enzyme inhibition screening results which estimate the expected potency of the inhibitor. Inhibitor concentrations are then prepared using the Biomek 1000 (Beckman) and the Quadra 96 (Tomtec). Substrate (biotinylated at the amino terminal arginine and fluorescently labeled with fluorescein at the carboxyl terminal lysine), inhibitor and the tandem enzyme are allowed to react in solution at pH 5.5 (buffers identical to those used with the native dimeric enzyme) in the dark for 96 hours. Streptavidin coated polystyrene beads are added to stop the reaction. The labeled cleavage product is separated from unreacted substrate via filtration. Residual fluorescence is quantitated with the Idexx SM2000 (Idexx) and the resulting data are analyzed using the NLLSF program.
# [2] = target: HIV-1 protease (Human immunodeficiency virus type 1 group M subtype B, UniProt P04585); assay: biochemical
# Outline: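 A substrate biotinylated at the N-terminal arginine and FITC-labelled at the C-terminal lysine was incubated with HIV-1 protease (10 μl of 0.1 μM) and compound for 1 h in the dark at room temperature. Buffer was 0.1 M sodium acetate pH 5.5, 1.0 M NaCl, 0.05% NP-40. Labelled product was separated from substrate using streptavidin beads and filtration, and the fluorescence gave percent inhibition.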
# [3] = Table II, enzyme HIV-1, DOSE 0.123 (unit not given)
# [4] = Table II, enzyme HIV-1, DOSE 0.370 (unit not given)
# [5] = Table II, enzyme HIV-1, DOSE 1.100 (unit not given)
# [6] = Table II, enzyme HIV-1, DOSE 3.300 (unit not given)
# [7] = Table II, enzyme HIV-1, DOSE 10.000 (unit not given)
# [8] = Table II, enzyme HIV-1, DOSE 30.000 (unit not given)
Structure (SMILES),Ki [1],"PROTEASE % INHIB. [2, 3]","PROTEASE % INHIB. [2, 4]","PROTEASE % INHIB. [2, 5]","PROTEASE % INHIB. [2, 6]","PROTEASE % INHIB. [2, 7]","PROTEASE % INHIB. [2, 8]",PROTEASE % INHIB. [2]
"CCC[C@@]1(CCc2ccccc2)CC(O)=C([C@H](CC)c2cccc(NS(=O)(=O)c3ccc(N)cn3)c2)C(=O)O1 (single isomer, unassigned) [Example 314, 5-Amino-N-[3(R or S)-(1-[5,6-dihydro-4-hydroxy-2-oxo-6(R or S)-(2-phenylethyl)-6-propyl-2H-pyran-3-yl]propyl)phenyl]-2-pyridinesulfonamide]",0.7 nM,82.92%,96.14%,114.86%,100.76%,88.75%,73.42%,–
"CCC[C@@]1(CCc2ccccc2)CC(O)=C([C@H](CC)c2cccc(NS(=O)(=O)c3ccc(N)cn3)c2)C(=O)O1 (single isomer, unassigned) [Example 315, 5-Amino-N-[3(R or S)-(1-[5,6-dihydro-4-hydroxy-2-oxo-6(R or S)-(2-phenylethyl)-6-propyl-2H-pyran-3-yl]propyl)phenyl]-2-pyridinesulfonamide]",0.029 nM,79.95%,87.25%,88.08%,97.03%,100.2%,106.4%,–
"CCC[C@@]1(CCc2ccc(F)cc2)CC(O)=C([C@@H](c2cccc(NS(=O)(=O)c3ccc(N)cn3)c2)C(C)(C)C)C(=O)O1 (single isomer, unassigned) [Example 316, 5-Amino-N-[3(R or S)-(1-[6(R or S)-(2-[4-fluorophenyl]ethyl)-5,6-dihydro-4-hydroxy-2-oxo-6-propyl-2H-pyran-3-yl]-2,2-dimethyl-propyl)phenyl]-2-pyridine-sulfonamide]",0.357 nM,75.49%,85.02%,100.32%,95.46%,99.71%,87.91%,–
"CCC[C@@]1(CCc2ccc(F)cc2)CC(O)=C([C@@H](c2cccc(NS(=O)(=O)c3ccc(N)cn3)c2)C(C)(C)C)C(=O)O1 (single isomer, unassigned) [Example 317, 5-Amino-N-[3(R or S)-(1-[6(R or S)-(2-[4-fluorophenyl]ethyl)-5,6-dihydro-4-hydroxy-2-oxo-6-propyl-2H-pyran-3-yl]-2,2-dimethyl-propyl)phenyl]-2-pyridine-sulfonamide]",0.04 nM,87.38%,94.14%,98.45%,95.97%,101.26%,108.59%,–
"CCCC1(CCC)CC(O)=C(C(c2cccc(NS(=O)(=O)c3cn(C)cn3)c2)C(C)(C)C)C(=O)O1 (single isomer, unassigned) [Example 318, N-[3(R or S)-(1-[5,6-Dihydro-6,6-dipropyl-4-hydroxy-2-oxo-2H-pyran-3-yl]-2,2-dimethylpropyl)-phenyl]-1-methyl-1H-imidazole-4-sulfonamide]",0.019 nM,98.06%,106.35%,101.88%,88.73%,94.49%,82.83%,–
"CCCC1(CCC)CC(O)=C(C(c2cccc(NS(=O)(=O)c3cn(C)cn3)c2)C(C)(C)C)C(=O)O1 (single isomer, unassigned) [Example 319, N-[3(R or S)-(1-[5,6-Dihydro-6,6-dipropyl-4-hydroxy-2-oxo-2H-pyran-3-yl]-2,2-dimethylpropyl)-phenyl]-1-methyl-1H-imidazole-4-sulfonamide]",29.5 nM,10.75%,32.65%,60.14%,75.86%,93.46%,74.48%,–
"CCC[C@@]1(CCc2ccccc2)CC(O)=C([C@H](CC)c2cccc(NS(=O)(=O)c3ccc(C#N)cn3)c2)C(=O)O1 (single isomer, unassigned) [Example 335, N-[3-{1(R or S)-(4-Hydroxy-5,6-dihydro-2-oxo-6(R or S)-phenethyl-6-propyl-2H-pyran-3-yl)propyl}phenyl]-5-cyanopyridine-2-sulfonamide]",0.04 nM,–,–,–,–,–,–,60.07 and 99.75 and 97.05 and 92.06 and 89.77 and 76.25
"CCC[C@]1(CCc2ccccc2)CC(O)=C([C@H](CC)c2cccc(NS(=O)(=O)c3ccc(C#N)cn3)c2)C(=O)O1 (single isomer, unassigned) [Example 336, N-[3-{1(R or S)-(4-Hydroxy-5,6-dihydro-2-oxo-6(S or R)-phenethyl-6-propyl-2H-pyran-3-yl)propyl}phenyl]-5-cyanopyridine-2-sulfonamide]",0.032 nM,–,–,–,–,–,–,65.64 and 112 and 89.54 and 88.06 and 77.12 and 62.28
"CCC[C@]1(CCc2ccccc2)CC(O)=C([C@@H](CC)c2cccc(NS(=O)(=O)c3ccc(C#N)cn3)c2)C(=O)O1 (single isomer, unassigned) [Example 338, N-[3-{1(S or R)-(4-Hydroxy-5,6-dihydro-2-oxo-6(S or R)-phenethyl-6-propyl-2H-pyran-3-yl)propyl]phenyl]-5-cyano-pyridine-2-sulfonamide]",0.1 nM,–,–,–,–,–,–,61.74 and 85.32 and 80.46 and 89.62 and 83.53 and 62.34
"CCC[C@@]1(CCc2ccccc2)CC(O)=C([C@H](CC)c2cccc(NS(=O)(=O)c3cn(C)cn3)c2)C(=O)O1 (single isomer, unassigned) [Example 339, N-[3-{1(R or S)-(4-Hydroxy-5,6-dihydro-2-oxo-6(R or S)-phenethyl-6-propyl-2H-pyran-3-yl)propyl}phenyl]-1-methyl-1H-imidazole-4-sulfonamide]",0.12 nM,–,–,–,–,–,–,83.49 and 100.6 and 101.42 and 104.71 and 91.38 and 72.86
"CCC[C@]1(CCc2ccccc2)CC(O)=C([C@H](CC)c2cccc(NS(=O)(=O)c3cn(C)cn3)c2)C(=O)O1 (single isomer, unassigned) [Example 340, N-[3-{1(R or S)-(4-Hydroxy-5,6-dihydro-2-oxo-6(S or R)-phenethyl-6-propyl-2H-pyran-3-yl)propyl}phenyl]-1-methyl-1H-imidazole-4-sulfonamide]",0.06 nM,–,–,–,–,–,–,80.58 and 90.49 and 90.16 and 91.57 and 89.49 and 71.99
"CCC[C@]1(CCc2ccccc2)CC(O)=C([C@@H](CC)c2cccc(NS(=O)(=O)c3cn(C)cn3)c2)C(=O)O1 (single isomer, unassigned) [Example 342, N-[3-{1(S or R)-(4-Hydroxy-5,6-dihydro-2-oxo-6(S or R)-phenethyl-6-propyl-2H-pyran-3-yl)propyl}phenyl]-1-methyl-1H-imidazole-4-sulfonamide]",0.309 nM,–,–,–,–,–,–,81.06 and 93.18 and 96.94 and 85.55 and 73.55 and 73.95
"CCC[C@@]1(CCc2ccc(F)cc2)CC(O)=C([C@@H](c2cccc(NS(=O)(=O)c3ccc(C#N)cn3)c2)C(C)(C)C)C(=O)O1 (single isomer, unassigned) [Example 345, N-[3-{1(R or S)-(4-Hydroxy-5,6-dihydro-2-oxo-6(R or S)-(2-(4-fluorophenyl)ethyl)-6-propyl-2H-pyran-3-yl)-2,2-dimethyl-propyl}phenyl]-5-cyanopyridine-2-sulfonamide]",0.032 nM,69.19%,94.37%,101.67%,99.08%,97.43%,84.56%,–
"CCC[C@@]1(CCc2ccc(F)cc2)CC(O)=C([C@H](c2cccc(NS(=O)(=O)c3ccc(C#N)cn3)c2)C(C)(C)C)C(=O)O1 (single isomer, unassigned) [Example 347, N-[3-{1(S or R)-(4-Hydroxy-5,6-dihydro-2-oxo-6(R or S)-(2-(4-fluorophenyl)ethyl)-6-propyl-2H-pyran-3-yl)-2,2-dimethyl-propyl}phenyl]-5-cyanopyridine-2-sulfonamide]",13.6 nM,20.99%,50.82%,71.4%,83%,90.97%,87.18%,–
"CCC[C@]1(CCc2ccc(F)cc2)CC(O)=C([C@H](c2cccc(NS(=O)(=O)c3ccc(C#N)cn3)c2)C(C)(C)C)C(=O)O1 (single isomer, unassigned) [Example 348, N-[3-{1(S or R)-(4-Hydroxy-5,6-dihydro-2-oxo-6(S or R)-(2-(4-fluorophenyl)ethyl)-6-propyl-2H-pyran-3-yl)-2,2-dimethyl-propyl}phenyl]-5-cyanopyridine-2-sulfonamide]",1.96 nM,53.47%,78.32%,89.84%,92.96%,96.28%,84.67%,–
